Experimental data as given in patent US20250099557A1, “ANTIBIOTIC PHARMACEUTICAL COMPOSITION CAPABLE OF SUBCUTANEOUS ADMINISTRATION” (SHANGHAI BAO PHARMACEUTICALS CO., LTD., priority 2021, published 2025).

Key:
intestinal flora = assay: Effects of administration routes on the diversity of intestinal flora in mice (16S rDNA sequencing, OTU); format: in vivo; conditions: C57BL/6 mice, feces
Text: 12 SPF grade C57BL/6 mice were used for each antibiotic mode, and divided into two groups, each having 6 mice. The two groups include an oral administration group, and a subcutaneous administration group combined with recombinant human HAase. A blank control group including 6 mice was also set. The mice in the oral administration group were given the model antibiotic solution by oral gavage for five consecutive days. The mice in the subcutaneous administration group combined with recombinant human HAase were given the same dose of model antibiotic as that in the oral administration group by subcutaneous administration for five consecutive days. The feces of mice in each group were collected on the 1 st, 2nd, 3rd, 4th, 5th, 6th, 8th, 10th and 14th days after five consecutive days of administration, and stored at −80° C., for detecting the microbial diversity later. The fecal samples of each group were amplified and sequenced by 16S rDNA sequencing. After DNA extraction, PCR amplification and gene sequencing, the changes of intestinal bacterial diversity in each group of mice were analyzed. The relative species diversity of the test group was calculated, with the OUT value of the blank control group in each day as a reference, as shown in Table 33.

HAase = target: T1, HAase (Homo sapiens, UniProt P38567); assay: Compatibility study of HAase and antibiotic in solution: HAase activity; format: biochemical; conditions: 15 min room temperature; for Final concentration of HAase (units/ml) 150: HAase added to 150 units/ml; for Final concentration of HAase (units/ml) 500: HAase added to 500 units/ml; for Final concentration of HAase (units/ml) 2000: HAase added to 2000 units/ml; for Final concentration of HAase (units/ml) 6000: HAase added to 6000 units/ml; for interference with the activity of HAase: antibiotic and HAase in physiological saline
T1 construct: made in house
T1 sequence (P38567 36-482): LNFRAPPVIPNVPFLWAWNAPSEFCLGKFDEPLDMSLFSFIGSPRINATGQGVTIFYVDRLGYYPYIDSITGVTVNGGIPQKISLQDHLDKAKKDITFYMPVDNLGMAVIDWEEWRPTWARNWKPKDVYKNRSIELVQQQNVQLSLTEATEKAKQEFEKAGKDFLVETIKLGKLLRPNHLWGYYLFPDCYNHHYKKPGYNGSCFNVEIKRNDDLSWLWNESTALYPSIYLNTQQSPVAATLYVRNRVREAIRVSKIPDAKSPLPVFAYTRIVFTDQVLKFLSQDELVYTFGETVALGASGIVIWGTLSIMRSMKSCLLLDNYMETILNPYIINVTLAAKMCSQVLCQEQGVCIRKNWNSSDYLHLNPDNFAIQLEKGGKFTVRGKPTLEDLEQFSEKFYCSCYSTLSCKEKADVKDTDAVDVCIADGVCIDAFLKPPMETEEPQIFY
Protocol: “HAase activity refers to the ability of HAase to catalytically cleave hyaluronic acid. The Chinese Pharmacopoeia provides a method for determining the HAase activity, indirectly by measuring the amount of remaining higher-molecular-weight hyaluronic acid substrate after the enzyme is allowed to catalytically cleave hyaluronic acid at 37° C. for 30 min. A standard reference solution can be used in the assay to determine the relative activity (in units) of any HAase. In-vitro assays for the determination of HAase are known in the art. Exemplary assays include micro-turbidimetric assay described below, which indirectly measures the cleavage of hyaluronic acid by HAase by detecting an insoluble precipitate formed when uncleaved hyaluronic acid binds to serum albumin. The reference standard can be used, for example, to generate a standard curve, so as to determine the activity of the tested HAase in units.
The compatibility of HAase and an antibiotic was studied by preparing a solution comprising the two substances. A dry Meropenem power for injection was dissolved in physiological saline to give a concentration of 5 mg/ml and 50 mg/ml, and then HAase was added to give a final concentration of 150, 500, 2000, and 6000 units/ml respectively. After preparation, the solution was left to stand at room temperature for 15 min. The appearance of the solution was observed, and the concentration of HAase was determined.
The compatibility of HAase and an antibiotic was studied by preparing a solution comprising the two substances. A dry Ceftriaxone sodium power for injection was dissolved in physiological saline to give a concentration of 50 mg/ml and 250 mg/ml, and then HAase was added to give a final concentration of 150, 500, 2000, and 6000 units/ml respectively. After preparation, the solution was left to stand at room temperature for 15 min. The appearance of the solution was observed, and the concentration of HAase was determined.
The compatibility of HAase and an antibiotic was studied by preparing a solution comprising the two substances. A dry Azithromycin power for injection was dissolved in physiological saline to give a concentration of 10 mg/ml and 100 mg/ml, and then HAase was added to give a final concentration of 150, 500, 2000, and 6000 units/ml respectively. After preparation, the solution was left to stand at room temperature for 15 min. The appearance of the solution was observed, and the concentration of HAase was determined.
The compatibility of HAase and an antibiotic was studied by preparing a solution comprising the two substances. A dry Cefradine powder for injection was dissolved in physiological saline to give a concentration of 50 mg/ml and 250 mg/ml, and then HAase was added to give a final concentration of 150, 500, 2000, and 6000 units/ml respectively. After preparation, the solution was left to stand at room temperature for 15 min. The appearance of the solution was observed, and the concentration of HAase was determined.
The compatibility of HAase and an antibiotic was studied by preparing a solution comprising the two substances. A dry Teicoplanin powder for injection was dissolved in physiological saline to give a concentration of 10 mg/ml and 70 mg/ml, and then HAase was added to give a final concentration of 150, 500, 2000, and 6000 units/ml respectively. After preparation, the solution was left to stand at room temperature for 15 min. The appearance of the solution was observed, and the concentration of HAase was determined.
The compatibility of HAase and an antibiotic was studied by preparing a solution comprising the two substances. A dry Ceftazidime powder for injection was dissolved in physiological saline to give a concentration of 20 mg/ml and 200 mg/ml, and then HAase was added to give a final concentration of 150, 500, 2000, and 6000 units/ml respectively. After preparation, the solution was left to stand at room temperature for 15 min.

[1] = in combination with recombinant human HAase for subcutaneous administration, five consecutive days, D1 after administration
[2] = in combination with recombinant human HAase for subcutaneous administration, five consecutive days, D2
[3] = in combination with recombinant human HAase for subcutaneous administration, five consecutive days, D3
[4] = in combination with recombinant human HAase for subcutaneous administration, five consecutive days, D4
[5] = in combination with recombinant human HAase for subcutaneous administration, five consecutive days, D5
[6] = in combination with recombinant human HAase for subcutaneous administration, five consecutive days, D6
[7] = in combination with recombinant human HAase for subcutaneous administration, five consecutive days, D8
[8] = in combination with recombinant human HAase for subcutaneous administration, five consecutive days, D10
[9] = in combination with recombinant human HAase for subcutaneous administration, five consecutive days, D14
[10] = oral administration for five consecutive days, D1 after administration
[11] = oral administration for five consecutive days, D2
[12] = oral administration for five consecutive days, D3
[13] = oral administration for five consecutive days, D4
[14] = oral administration for five consecutive days, D5
[15] = oral administration for five consecutive days, D6
[16] = oral administration for five consecutive days, D8
[17] = oral administration for five consecutive days, D10
[18] = oral administration for five consecutive days, D14
[19] = antibiotic 20 mg/ml in physiological saline
[20] = antibiotic 200 mg/ml in physiological saline
[21] = antibiotic 50 mg/ml in physiological saline
[22] = antibiotic 250 mg/ml in physiological saline

Row | SMILES | Relative abundance of OUT (operational taxonomic units) (intestinal flora; [1]) | Relative abundance of OUT (operational taxonomic units) (intestinal flora; [2]) | Relative abundance of OUT (operational taxonomic units) (intestinal flora; [3]) | Relative abundance of OUT (operational taxonomic units) (intestinal flora; [4]) | Relative abundance of OUT (operational taxonomic units) (intestinal flora; [5]) | Relative abundance of OUT (operational taxonomic units) (intestinal flora; [6]) | Relative abundance of OUT (operational taxonomic units) (intestinal flora; [7]) | Relative abundance of OUT (operational taxonomic units) (intestinal flora; [8]) | Relative abundance of OUT (operational taxonomic units) (intestinal flora; [9]) | Relative abundance of OUT (operational taxonomic units) (intestinal flora; [10]) | Relative abundance of OUT (operational taxonomic units) (intestinal flora; [11]) | Relative abundance of OUT (operational taxonomic units) (intestinal flora; [12]) | Relative abundance of OUT (operational taxonomic units) (intestinal flora; [13]) | Relative abundance of OUT (operational taxonomic units) (intestinal flora; [14]) | Relative abundance of OUT (operational taxonomic units) (intestinal flora; [15]) | Relative abundance of OUT (operational taxonomic units) (intestinal flora; [16]) | Relative abundance of OUT (operational taxonomic units) (intestinal flora; [17]) | Relative abundance of OUT (operational taxonomic units) (intestinal flora; [18]) | interference with the activity of HAase (HAase) | further results
1 | CC(C)(O/N=C(\C(=O)N[C@@H]1C(=O)N2C(C(=O)[O-])=C(C[n+]3ccccc3)CS[C@H]12)c1csc(N)n1)C(=O)O [Ceftazidime] | 35.5% | 34.0% | 34.3% | 33.7% | 34.3% | 35.1% | 41.6% | 42.3% | 51.3% | 22.8% | 20.9% | 20.4% | 21.1% | 19.2% | 22.3% | 26.8% | 29.6% | 32.5% | does not interfere with the activity of HAase | Final concentration of HAase (units/ml) 150 (HAase; [19]): 145 units/ml; Final concentration of HAase (units/ml) 500 (HAase; [19]): 501 units/ml; Final concentration of HAase (units/ml) 2000 (HAase; [19]): 2026 units/ml; Final concentration of HAase (units/ml) 6000 (HAase; [19]): 6027 units/ml; Final concentration of HAase (units/ml) 150 (HAase; [20]): 148 units/ml; Final concentration of HAase (units/ml) 500 (HAase; [20]): 488 units/ml; Final concentration of HAase (units/ml) 2000 (HAase; [20]): 2001 units/ml; Final concentration of HAase (units/ml) 6000 (HAase; [20]): 5981 units/ml
2 | CO/N=C(\C(=O)N[C@@H]1C(=O)N2C(C(=O)O)=C(CSc3nc(=O)c(=O)[nH]n3C)CS[C@H]12)c1csc(N)n1 [Ceftriaxone] | 31.5% | 28.8% | 28.9% | 33.2% | 29.1% | 33.2% | 37.9% | 39.3% | 47.1% | 16.8% | 14.7% | 10.4% | 14.1% | 15.5% | 18.3% | 15.8% | 23.0% | 25.7% | does not interfere with the activity of HAase | Final concentration of HAase (units/ml) 150 (HAase; [21]): 162 units/ml; Final concentration of HAase (units/ml) 500 (HAase; [21]): 510 units/ml; Final concentration of HAase (units/ml) 2000 (HAase; [21]): 1986 units/ml; Final concentration of HAase (units/ml) 6000 (HAase; [21]): 6067 units/ml; Final concentration of HAase (units/ml) 150 (HAase; [22]): 162 units/ml; Final concentration of HAase (units/ml) 500 (HAase; [22]): 507 units/ml; Final concentration of HAase (units/ml) 2000 (HAase; [22]): 1962 units/ml; Final concentration of HAase (units/ml) 6000 (HAase; [22]): 6232 units/ml
